Measured values taken from patent US7381737B2, “Crystalline forms and process for preparing spiro-hydantoin compounds” (Bristol-Myers Squibb Company, priority 2004, dated 2008).

| melting point [°C] | SMILES |
| --- | --- |
| 79 to 109 | CN1C(=O)N(c2cc(Cl)cc(Cl)c2)C(=O)[C@]12CN(CN1C[C@H](c3ccc(C#N)cc3)[C@@]3(C1)C(=O)N(c1cc(Cl)cc(Cl)c1)C(=O)N3C)C[C@H]2c1ccc(C#N)cc1 (hydrate or solvate) [Example 6a, Meso Aminal Dimer of 4-[3-(3,5-Dichlorophenyl)-1-methyl-2,4-dioxo-1,3,7-triazaspiro[4.4]non-9-yl]-benzonitrile] |
| 31 to 47 | CN1C(=O)N(c2cc(Cl)cc(Cl)c2)C(=O)[C@]12CN(CN1C[C@@H](c3ccc(C#N)cc3)[C@]3(C1)C(=O)N(c1cc(Cl)cc(Cl)c1)C(=O)N3C)C[C@H]2c1ccc(C#N)cc1 (racemic) (hydrate or solvate) [Example 6b, Racemic Aminal Dimer of 4-[3-(3,5-Dichlorophenyl)-1-methyl-2,4-dioxo-1,3,7-triazaspiro[4.4]non-9-yl]-benzonitrile] |
| 204 to 207 | COC(=O)c1csc(CN2C[C@@H](c3ccc(C#N)cc3)[C@]3(C2)C(=O)N(c2cc(Cl)cc(Cl)c2)C(=O)N3C)c1.Cl (stereo in doubt) |
